In assay [1] the test system is C57/B16 mice. Put plainly: Bleomycin induced murine pulmonary fibrosis, lung sections stained with trichrome, body weight and survival. Format: in vivo. The conditions noted are these: for disease progression, as judged by reduced mortality, histopathology and endogenous gene expression: bleomycin murine model, 5 mg/Kg/day. As for the experimental part:
Murine models of bleomycin induced fibrosis have been developed in order to study fibrotic disease progression.
There is an absence of airway epithelium in lower left compared to upper left (see arrow heads) and extensive collagen deposition (lower left). On the sixth day, either saline (upper right) or ICG-001 (5 mgs/Kg/day) was administered for 10 days after which the mice were sacrificed and sectioned. Of interest is the upper right (saline treatment) showing lack of normal airway epithelialization, extensive collagen deposition and intra-airway hypercellularity (fibroblasts and inflammatory influx).

Assay [2] has as its system S100A4. Put plainly: RT-PCR in bleomycin treated mice. Format: in vivo. Conditions: 5 mgs/Kg/day s.c.
Assay [3] relates to collagen 1A2. Put plainly: RT-PCR in bleomycin treated mice. In kind it is in vivo. Conditions: 5 mgs/Kg/day s.c.
For assay [4], the system named is IPF patient fibroblasts. Put plainly: IPF patient fibroblasts, Western blots on whole cell lysates. Format: cell-based, human. As for the experimental part: Western blots for S100A4 (also know as FSP-1 or fibroblast specific protein-1) and E-Cadherin were performed on whole cell lysates.
In general terms: Immunoblotting shows a protein as a band on a membrane.

Setting [5] is: bleomycin 5 days, then 5 mgs/Kg/day for 10 days.
[6] abbreviates: RPMI 1640+10% FBS, 2 days, whole cell lysates.

Structures are written as SMILES.

As to `O=C1[C@H](Cc2ccc(O)cc2)N2C(=O)CCN(C(=O)NCc3ccccc3)[C@H]2CN1Cc1cccc2ccccc12` [ICG-001], in assay [1] (setting [5]), the “airway histology (epithelialization)” value is given as “airway looks essentially normal”, the body weight result was “regained normal body weight” and the “collagen levels (trichrome stain)” value is listed as “normal collagen levels”. For the same compound, in assay [1] (bleomycin 5 days, then 5 mgs/Kg/day for 10 days, untreated controls did not survive), the survival result is “survived”. Besides, in assay [1], the “disease progression, as judged by reduced mortality, histopathology and endogenous gene expression” value is listed as “not only halted but reversed disease progression”. Also, the “disease progression, as judged by reduced mortality, histopathology and endogenous gene expression” value in assay [1] (listed as ICG-011, 5 mg/kg/day) is reported as “not only halts but reverses disease progression”. Moreover, in assay [2], the “S100A4 message (RT-PCR)” value is “reduced essentially to negative control”. Besides, the “collagen 1A2 message (RT-PCR)” value in assay [3] is given as “reduced essentially to negative control”. Moreover, the “S100A4 and E-cadherin expression at the mRNA level” value in assay [4] (IPF patient fibroblasts) is “this is also true at the mRNA level”. In assay [4] (setting [6]), the “E-Cadherin expression, Western blot” value is “increased E-Cadherin expression” and the “S100A4 (FSP-1) expression, Western blot” value is reported as “decreased S100A4 expression”.

The values above are taken from patent US20080171745A1, “METHODS RELATING TO THE TREATMENT OF FIBROSIS” (UNIVERSITY OF WASHINGTON, priority 2005, published 2008).
